Reference: article PMC6770063, “Utilizing the Combination of Binding Kinetics and Micro-Pharmacokinetics Link in Vitro α-Glucosidase Inhibition to in Vivo Target Occupancy” (Biomolecules, 2019)

What was measured:
[1] = test system: α-Glucosidase (Saccharomyces cerevisiae); test: Binding kinetics by reaction progress curve analysis; type: biochemical; conditions: for binding mechanism: kobs versus concentration hyperbolic; for Dissociation Half-Life: ln2 divided by koff (progress curve); for time dependence of inhibition: preincubation and progress curves; for Ki: read-out: Ki* (final equilibrium dissociation constant, true affinity)
Description: Progress curves were fitted to the equation (Equation (1)) described by Williams and Morrison to calculate kobs values for slow binding (i.e., time-dependent) inhibition. (1) A=vs×t+(vi−vs)(1−e^−kobs×t/kobs)+A0 where A is the absorbance; vi and vs are initial and steady-state velocities (expressed in A/time), respectively; t is time; kobs is the pseudo first order rate constant for the approach to steady-state and A0 is the initial blank absorbance at 405 nm. In order to determine inhibition modality and calculate inhibition constants obtained, steady-state rates from progress curves were subsequently fitted to the following steady-state velocity equation (Equation (2)) described by Robert A. Copeland [34] for noncompetitive inhibition:(2) v=vmax×[S]/[S]×(1+[I]/αKi)+Km×(1+[I]/Ki) where v is velocity; Vmax refers to the maximum velocity; [I] is concentration of inhibition; Km refers to Michaelis constant; α is constant.
(3) kobs=k4+(k3×[I]/Kiapp+[I]) (4) kon=k3/Ki (5) koff=k4 (6) Ki*=Ki/1+k3/k4 where k3 is forward enzyme isomerization rate constant; k4 is reverse enzyme isomerization rate constant, Ki^app is the apparent value of the Ki for the initial encounter complex. Ki was estimated using the following Cheng-prusoff equation (Equation (7)) as described previously for noncompetitive inhibition:(7) Kiapp=Ki×(1+[S]/Km)/((1+α)×([S]/Km))

[2] = test system: α-Glucosidase (Saccharomyces cerevisiae); test: Off-rate by rapid dilution approach; type: biochemical
Procedure: Among these BK parameters, the off-rate value of acarbose was determined by applying the rapid dilution approaches, which were readily available from the references [35, 49].

[3] = test system: α-Glucosidase (Saccharomyces cerevisiae); test: Surface plasmon resonance (SPR) binding kinetics, immobilized AGH; conditions: 25 °C, 1:1 Langmuir model
Procedure: Surface plasmon resonance (SPR) experiments were performed to measure the BK parameters between compounds and AGH. After the activation of the surface using NHS and EDC (1:1, v/v), the AGH was immobilized on a CM5 sensor chip (GE healthcare) by using standard amine-coupling at 25 °C with running buffer PBS-P (20 mM phosphate buffer, […], 0.05% surfactant P-20, pH 7.4). The AGH concentration was fixed at 50 ng/µL and the immobilization level of AGH was about 8000 RU (response unit, 1 RU response value is roughly equivalent to 1 pg/mm^2 change of the concentration of the bound substance on the chip surface). After coupling, unreacted NHS ester groups were blocked with ethanolamine. Different concentrations of compounds containing 5% DMSO were serially injected into the channel to evaluate the BK parameters. A reference channel was only activated and blocked to eliminate compound unspecific binding to the surface of the chip. An extra wash with 50% DMSO was added to remove the last remaining sample in the pipeline. The on-rates and the off-rates of the compounds were obtained by fitting the data sets to 1:1 Langmuir binding model using the Biacore T200 Evaluation Software (GE Healthcare).

[4] = test system: α-Glucosidase (Saccharomyces cerevisiae); test: Mutual exclusivity study (Yonetani-Theorell); type: biochemical; conditions: combination of ECG with EGCG, Equation (8)
Procedure: Mutual exclusivity studies were performed by measuring the reaction velocity at several fixed concentrations of one investigated compound while titrating another tested compound with various concentrations, and data were evaluated by the method (Equation (8)) proposed by Yonetanii and Theorell that yielded a value of β for different noncompetitive inhibition by nonlinear regression analysis. (8) 1/vij=1/v0×(1+[I]/Ki+[J]/Kj+[I][J]/βKiKj) where vij is the enzyme velocity in the presence of both compounds at concentrations [I] and [J]; v0 is the velocity in the absence of compound; β is an interaction constant that defines the degree to which binding of one compound perturbs the affinity of the enzyme for the second compound.

[5] = biological target: α-Glucosidase (Saccharomyces cerevisiae); test: IC50 determination, AGH enzyme inhibition assay (pNPG substrate); type: biochemical; conditions: 15 min preincubation at 37 °C, 0.36 mM pNPG, mean ± SEM of three experiments
Procedure: Steady-state kinetic studies were carried out on a Multiskan FC Devices. The AGH activity was assayed by adding 50 μL of AGH solution to 300 μL of substrate solution (pNPG was used as the substrate) in 0.1 M PBS buffer (pH 6.8), followed by incubation at 37 °C for 30 min. The AGH activity was measured by monitoring an increase of the p-nitrophenol (pNP) released from substrate pNPG in absorbance at 405 nm.
AGH was preincubated with two tea polyphenols for 15 min at 37 °C, respectively. The reaction was started by the addition of the pNPG (0.36 mM final concentration), and the initial rate was measured by ultraviolet (UV) detector. Linearity of UV response was confirmed with correlation coefficients (R^2) of > 0.99. Data were the means ± standard error of the mean (SEM) of three independent experiments, and were fitted using standard four-parameter logistic models to measure IC50 values by JMP software (version 11.0.0, SAS Institute, Inc., Cary, NC, USA).

[6] = test system: α-Glucosidase (Saccharomyces cerevisiae); test: Steady-state velocity fit and double reciprocal plot (inhibition type); type: biochemical; conditions: for constant α: Equation (2), noncompetitive inhibition; for type of inhibition: double reciprocal plot; for Ki: steady-state velocity fit, read-out: free AGH binding inhibition constant (Ki)
Procedure: The reaction progress of AGH inhibition by ECG was measured under the pseudo-first-order conditions ([I], initiated by the addition of 50 μL AGH to 300 μL of a mixture of tested compound and substrate and monitor the liberation of free pNP at 405 nm. The final pNPG concentrations ranged from 0.18 to 1.44 mM. The compound investigated concentrations were 0, 0.7, 1.4, 2.8, 5.6, 11.2 μM. The reading was recorded every 20 s during 4000 s and blank absorbance values were subtracted from the data before subsequent calculations. Similar experiments were performed with EGCG to measure its reaction progress curve. Progress curves were fitted to the equation (Equation (1)) described by Williams and Morrison to calculate kobs values for slow binding (i.e., time-dependent) inhibition. (1) A=vs×t+(vi−vs)(1−e^−kobs×t/kobs)+A0 where A is the absorbance; vi and vs are initial and steady-state velocities (expressed in A/time), respectively; t is time; kobs is the pseudo first order rate constant for the approach to steady-state and A0 is the initial blank absorbance at 405 nm. In order to determine inhibition modality and calculate inhibition constants obtained, steady-state rates from progress curves were subsequently fitted to the following steady-state velocity equation (Equation (2)) described by Robert A. Copeland [34] for noncompetitive inhibition:(2) v=vmax×[S]/[S]×(1+[I]/αKi)+Km×(1+[I]/Ki) where v is velocity; Vmax refers to the maximum velocity; [I] is concentration of inhibition; Km refers to Michaelis constant; α is constant.
The inhibition type of the tested compounds against AGH was determined using a double reciprocal plot of 1/v as a function of 1/[S] in terms of intersecting lines converging to the location of the y-axis and the x-axis.

[7] = progress curve analysis, two-step induced-fit model

SMILES | kon ([1]; acarbose, Supplementary Table S2) | Dissociation Half-Life ([2]; ln2 divided by koff (rapid dilution)) | koff ([2]; rapid dilution approach) | binding mechanism [1] | Dissociation Half-Life [1] | time dependence of inhibition [1] | koff [1, 7] | kon [1, 7] | Ki ([1]; progress curve analysis) | koff [3] | kon [3] | β-value (interaction constant) [4] | IC50 [5] | constant α [6] | type of inhibition [6] | Ki [6]
C[C@H]1O[C@H](O[C@H]2[C@H](O)[C@@H](O)[C@@H](O[C@H]3[C@H](O)[C@@H](O)C(O)O[C@@H]3CO)O[C@@H]2CO)[C@H](O)[C@@H](O)[C@@H]1N[C@H]1C=C(CO)[C@@H](O)[C@H](O)[C@H]1O (some centres unmarked) [Acarbose, acarbose] | 2.1 ± 0.3 10^6 M^−1s^−1 | 606 min | 1.9 ± 0.2 10^−5 s^−1 |  |  |  |  |  |  |  |  |  |  |  |  | 
O=C(O[C@@H]1Cc2c(O)cc(O)cc2O[C@@H]1c1cc(O)c(O)c(O)c1)c1cc(O)c(O)c(O)c1 [EGCG, epigallocatechin gallate] |  |  |  | two-step induced-fit mechanism | 6 min | slow binding inhibition | 1.9 ± 0.2 10^−3 s^−1 | 2.4 ± 0.3 10^3 M^−1s^−1 | 160 ± 30 nM | 0.0038 s⁻¹ | 5700 M⁻¹ s⁻¹ | 4133197 | 410 ± 100 nM | 5.6 | noncompetitive inhibitor | 200 nM
O=C(O[C@@H]1Cc2c(O)cc(O)cc2O[C@@H]1c1ccc(O)c(O)c1)c1cc(O)c(O)c(O)c1 [ECG, Epicatechin gallate] |  |  |  | two-step induced-fit mechanism | 7.2 min | slow binding inhibitor | 1.6 ± 0.3 10^−3 s^−1 | 0.2 ± 0.05 10^3 M^−1s^−1 | 1000 ± 300 nM | 0.0073 s⁻¹ | 6300 M⁻¹ s⁻¹ | 4133197 | 1500 ± 300 nM | 1.3 | noncompetitive inhibitor | 1100 nM
